From publication PMC5618429, “Kempopeptin C, a Novel Marine-Derived Serine Protease Inhibitor Targeting Invasive Breast Cancer” (Marine Drugs, 2017)
Like-named read-outs stand apart in the source and are kept apart here. Each block holds one compound with its values, some of them ahead of it.

Legend:
trypsin = settings: read-out: IC50 trypsin inhibition; cited from earlier work
plasmin = system: plasmin; parameters: method as in PMID 20405925; settings: read-out: IC50 plasmin inhibition; cited from earlier work
[1] = system: CDCP1 cleavage in MDA-MB-231 cells; parameters: method as in PMID 22543582; settings: positive control, through upregulation of PAI-1; cited from earlier work
chymotrypsin = system: chymotrypsin; parameters: method as in PMID 18693761; settings: cited from earlier work
elastase = target: elastase; parameters: method as in PMID 18693761; settings: cited from earlier work
[2] = Cell viability assay (MTT); assay type: cell-based; settings: human, MDA-MB-231 breast cancer cells; MDA-MB-231, 48 h, all concentrations tested (32 µM to 320 pM)
Method: MDA-MB-231 cells were seeded in 96-well plates (10,000 cells/well). After 24 h of incubation, the cells were treated with different concentrations of kempopeptins B or C (2 or 3) or the solvent control (DMSO). Following 48 h of incubation, cell viability was measured using 3-(4,5-dimethylthiazol-2-yl)-2,5-diphenyltetrazolium bromide according to the manufacturer's instructions (Promega, Madison, WI, USA).
Effect of kempopeptins on the viability of MDA-MB-231 cells
Kempopeptin C Kempopeptin B
Figure S1. Effect of kempopeptins B and C (2) and (3) on the viability of MDA -MB-231 breast cancer cells.

[3] = target: T1, plasmin from human plasma (Homo sapiens, UniProt P00747); experiment: Plasmin inhibition assay; assay type: biochemical; settings: mean ± SD, n = 3; 30-min preincubation; read-out: IC50 against plasmin
T1 construct: purchased Sigma P1867; host or cells: human plasma
Method: The plasmin inhibition assay was carried out by incubating 5 µL of […] plasmin from human plasma (P1867, Sigma, St. Louis, MO, USA) with 1 µL of different concentrations of inhibitors (2 and 3; half log dilutions prepared in DMSO) or the solvent control in the presence of 89 µL assay buffer (0.05 M Tris-HCl, pH 8.9). After a 30-min incubation time, 5 µL of 1.7 mM substrate solution (N-p-Tosyl-D-Gly-Pro-Lys-4-nitroanilide acetate salt; prepared in assay buffer) were added to each well. The reaction was monitored by measuring the absorbance at 405 nm every 30 s for 30 min using the SpectraMax M5 plate reader (Molecular Devices).

[4] = target: T2, recombinant human matriptase (Homo sapiens, UniProt Q9Y5Y6); experiment: Matriptase inhibition assay; assay type: biochemical; settings: mean ± SD, n = 3; 15-min preincubation; read-out: IC50 against matriptase
T2 construct: purchased R&D Systems 3946-SE-010
T2 sequence (Q9Y5Y6 615-855 limits assumed): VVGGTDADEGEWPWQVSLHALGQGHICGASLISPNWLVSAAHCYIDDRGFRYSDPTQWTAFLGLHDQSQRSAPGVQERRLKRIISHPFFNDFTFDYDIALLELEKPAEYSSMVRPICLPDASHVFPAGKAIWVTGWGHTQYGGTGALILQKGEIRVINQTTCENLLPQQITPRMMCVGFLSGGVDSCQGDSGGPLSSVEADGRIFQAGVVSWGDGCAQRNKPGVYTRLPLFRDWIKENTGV
Method: In matriptase inhibition assay, 50 µL of recombinant human matriptase (R&D Systems, Minneapolis, MN, USA; 3946-SE-010) ([…] prepared in assay buffer: 50 mM Tris, 50 mM NaCl, 0.01% Tween 20; pH 9.0) and 1 µL of different concentrations of inhibitors (2 and 3; half log dilutions prepared in DMSO) or the solvent control were pre-incubated at room temperature for 15 min. Following the incubation period, 50 µL of the 50 µM substrate solution (Boc-Gln-Ala-Arg-AMC) (R&D Systems, Minneapolis, MN, USA; ES014) were added to each well, and the enzyme activity was monitored by measuring the increase in fluorescence signal from the fluorescently-labeled substrate every 30 s for 30 min (Ex 380 nm, Em 460 nm) using the SpectraMax M5 plate reader (Molecular Devices).

[5] = target: T3, trypsin from porcine pancreas (Sus scrofa, UniProt P00761); experiment: Trypsin inhibition assay; assay type: biochemical; settings: mean ± SD, n = 3; 30-min preincubation; read-out: IC50 against trypsin
T3 construct: purchased Sigma T0303; host or cells: porcine pancreas
Method: The trypsin inhibition assay was carried out at room temperature by incubating 10 µL of trypsin from porcine pancreas (T0303, Sigma, St. Louis, MO, USA) (100 µM prepared in assay buffer) with 39 µL of assay buffer (50 mM Tris-HCl, 100 mM NaCl, 1 mM CaCl2; pH 7.8) in the presence of 1 µL of different concentrations of inhibitors (2 and 3; half log dilutions prepared in DMSO) or the solvent control. After a 30-min incubation time, 50 µL of the 1.5 mM substrate: Nα-benzoyl-DL-arginine-4-nitroanilide (prepared as 2 mM stock solution in DMF and further diluted to 1.5 mM in assay buffer) were added to each well. The reaction was monitored by measuring the absorbance at 405 nm every 30 s for 30 min using SpectraMax M5 plate reader (Molecular Devices, Sunnyvale, CA, USA).

[6] = system: CDCP1 cleavage in MDA-MB-231 cells; experiment: Cleavage of CDCP1 in MDA-MB-231 cells (Western blot); assay type: cell-based; settings: 72 h, different concentrations
Method: The experiment was performed by treating MDA-MB-231 cells with different concentrations of either kempopeptin B (2) or C (3) for 72 h (Figure 6A). Dexamethasone (Dex) 100 nM was used as a positive control.
Figure 6 The effect of kempopeptins B and C (2 and 3) on CDCP1 cleavage in MDA-MB-231. (A) MDA-MB-231 cells were treated for 72 h with different concentrations of the test compounds. Following 72 h, the lysates were collected and analyzed by Western blot. (B) MDA-MB-231 cells were treated at different time points with 100 µM of kempopeptin C (3). Following 6 h, 12 h and 24 h, the lysates were collected and analyzed by Western blot. Dexamethasone (Dex) was used as a positive control. (C) MDA-MB-231 cells treated for 24 h with different concentrations of 3 in the presence of 10 nM recombinant human matriptase. Cell lysates were harvested and analyzed by Western blot. (D) Densitometric analysis of the full-length, LMW of CDCP1 and actin bands in (C).
MDA-MB-231 cells (150,000 cells/well) were seeded in 12-well plates. After 24 h, the media were replaced, and cells were treated with different concentrations of inhibitors (2 or 3; prepared in DMSO), the solvent control or the positive control dexamethasone. Whole-cell protein lysates were collected after 6, 12, 24 and 72 h using PhosphoSafe lysis buffer (Novagen, Madison, USA) and the protein concentration measured using the BCA Protein Assay kit (Pierce; 23227; Thermofisher Scientific; Waltham, MA, USA). Twenty micrograms of protein were separated by SDS-PAGE, transferred to polyvinylidene difluoride (PVDF) membranes, probed with CDCP1 antibody (Cell Signaling; 4115S) and detected with SuperSignal West Femto Maximum Sensitivity Substrate (Pierce).

T1 sequence (P00747 581-810 limits assumed): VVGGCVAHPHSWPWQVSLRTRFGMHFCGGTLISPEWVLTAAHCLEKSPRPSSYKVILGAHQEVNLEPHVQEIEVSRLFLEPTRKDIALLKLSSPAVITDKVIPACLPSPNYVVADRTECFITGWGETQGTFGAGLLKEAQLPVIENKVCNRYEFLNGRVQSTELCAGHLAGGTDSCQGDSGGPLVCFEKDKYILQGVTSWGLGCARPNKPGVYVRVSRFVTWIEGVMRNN
T1 sequence (P00747 98-580 partner limits assumed): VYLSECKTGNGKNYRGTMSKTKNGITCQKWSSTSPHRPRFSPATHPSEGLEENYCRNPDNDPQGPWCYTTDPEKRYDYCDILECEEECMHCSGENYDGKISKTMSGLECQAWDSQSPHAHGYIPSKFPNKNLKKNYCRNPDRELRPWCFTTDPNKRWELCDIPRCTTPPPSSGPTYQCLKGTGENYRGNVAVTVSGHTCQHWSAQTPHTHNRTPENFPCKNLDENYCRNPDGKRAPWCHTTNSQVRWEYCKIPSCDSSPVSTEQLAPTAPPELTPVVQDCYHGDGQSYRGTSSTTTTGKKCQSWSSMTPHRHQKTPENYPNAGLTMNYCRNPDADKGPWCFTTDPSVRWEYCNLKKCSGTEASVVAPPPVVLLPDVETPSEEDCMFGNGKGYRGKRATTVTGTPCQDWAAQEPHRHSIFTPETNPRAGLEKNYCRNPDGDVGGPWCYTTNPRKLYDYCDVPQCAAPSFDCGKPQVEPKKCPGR
T3 sequence (P00761 9-231): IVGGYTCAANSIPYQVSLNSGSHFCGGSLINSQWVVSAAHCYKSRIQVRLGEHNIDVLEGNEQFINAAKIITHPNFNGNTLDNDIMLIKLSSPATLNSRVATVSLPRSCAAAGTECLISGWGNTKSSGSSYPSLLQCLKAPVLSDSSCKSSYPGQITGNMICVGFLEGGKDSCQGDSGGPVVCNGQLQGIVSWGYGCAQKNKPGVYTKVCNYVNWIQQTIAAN

SMILES: CC(C)C[C@@H](NC(=O)[C@H](O)COS(=O)(=O)O)C(=O)N[C@@H]1C(=O)N[C@@H](CCCNC(=N)N)C(=O)N[C@H]2CC[C@@H](O)N(C2=O)[C@@H](CC(C)C)C(=O)N(C)[C@@H](Cc2ccc(O)cc2)C(=O)N[C@@H](C(C)C)C(=O)O[C@@H]1C [Compound A90720A, A90720A]
- IC50 (trypsin): ~0.01 µM

SMILES: CCCCCC(=O)N[C@@H](CCC(=O)O)C(=O)N[C@@H]1C(=O)N[C@@H](CCCNC(=N)N)C(=O)N[C@H]2CC[C@@H](O)N(C2=O)[C@@H](Cc2ccccc2)C(=O)N(C)[C@@H](Cc2ccc(O)cc2)C(=O)N[C@@H](C(C)C)C(=O)O[C@@H]1C [Cyanopeptolin 1020, cyanopeptolin 1020]
- IC50 (trypsin): 0.00067 µM
- IC50 (plasmin): ~0.49 µM

SMILES: C[C@@H]1C[C@H]2[C@@H]3CCC4=CC(=O)C=C[C@]4(C)[C@@]3(F)[C@@H](O)C[C@]2(C)[C@@]1(O)C(=O)CO [Dexamethasone]
- Effect on cleavage of full-length CDCP1 [1]: blocks the cleavage of the full-length CDCP1

SMILES: CC(=O)N1CCC[C@H]1C(=O)N[C@H](C(=O)N[C@@H]1C(=O)N[C@@H](CC(C)C)C(=O)N[C@H]2CC[C@@H](O)N(C2=O)[C@@H](Cc2ccccc2)C(=O)N(C)[C@@H](Cc2ccc(O)cc2)C(=O)N[C@@H](C(C)C)C(=O)O[C@@H]1C)[C@@H](C)O [Kempopeptin A, kempopeptin A]
- IC50 (chymotrypsin; read-out: IC50 chymotrypsin inhibition): 2.6 µM
- IC50 (elastase; read-out: IC50 elastase inhibition): 0.32 µM

- IC50 [3]: 1.05 ± 0.19 µM
- IC50 [4]: 1.83 ± 0.19 µM
- IC50 [5]: 1.49 ± 0.18 µM
SMILES: CCCC(=O)N[C@H](C(=O)N[C@@H]1C(=O)N[C@@H](CCCCN)C(=O)N[C@H]2CC[C@@H](O)N(C2=O)[C@@H]([C@@H](C)CC)C(=O)N(C)[C@@H](Cc2ccc(OC)c(Br)c2)C(=O)N[C@@H](C(C)C)C(=O)O[C@@H]1C)C(C)C [Kempopeptin B, kempopeptin B]
- IC50 (chymotrypsin; read-out: IC50 against chymotrypsin): > 67 µM
- viability at 48 h [2]: > 90%
- IC50 (elastase; read-out: IC50 against elastase): > 67 µM
- Inhibition of CDCP1 cleavage in MDA-MB-231 [6]: No inhibition of CDCP1 cleavage was observed

SMILES: CCCC(=O)N[C@@H](CCC(N)=O)C(=O)N[C@@H]1C(=O)N[C@@H](CCCNC(N)=O)C(=O)N[C@H]2CC[C@@H](O)N(C2=O)[C@@H]([C@@H](C)CC)C(=O)N(C)[C@@H](Cc2ccc(OC)c(Br)c2)C(=O)N[C@@H](C(C)C)C(=O)O[C@@H]1C [Symplocamide A, symplocamide A]
- IC50 (trypsin): ~80 µM
